Data published in patent US7531320B2, “Modulation of β-catenin/TCF-activated transcription” (priority 2003, dated 2009).

Experiments:
cyclin D1 promoter = test: ChIP assay, cyclin D1 promoter in SW480 cells; format: cell-based, human; conditions: 25 μM
Method: FIG. 5. COMPOUND 1 inhibits the expression of cyclin D1. • A. Cyclin D1 levels are decreased with COMPOUND 1 treatment. Western blot analysis was performed on 25 μg of SW480 whole cell lysates treated for 4, 8, or 24 hours with either 25 μM of COMPOUND 1 or control (0.5% DMSO). Immunoblotting was performed using anti-Cyclin D1 antibodies (Santa Cruz Biotechnology Inc.). • B. In vivo occupancy of cyclin D1 and c-myc promoters by CBP and p300. […] ChIP assays were performed on promoter of c-myc from SW480 cells which was treated for 8 hours with COMPOUND 1 (25 μM) or control (0.5% DMSO). CBP (AC-26, a generous gift from Dr. David Livingston, Harvard University, Boston, Mass.) or p300 (C-20, Santa Cruz Biotechnology Inc.) specific antibodies were used to evaluate the promoter occupancy by CBP or p300 in presence of COMPOUND 1 or control (DMSO) treatment.
Formaldehyde cross-linking and chromatin immunoprecipitation assays of SW480 cells were performed as described previously (Barlev et al., “Acetylation of p53 activates transcription through recruitment of coactivators/histone acetyltransferases,” Mol. Cell 8:1243-54 (2001); El-Osta et al., “Analysis of chromatin-immunopurified MeCP2-associated fragments,” Biochem. Biophys. Res. Commun. 289:733-37 (2001); Shang et al., “Formation of the androgen receptor transcription Complex,” Mol. Cell 9:601-10 (2002)). […]

[1] = system: nuclear β-catenin in SW480 cells; test: β-catenin immunofluorescence and western blot localization in SW480 cells; format: cell-based, human; conditions: 25 μM, 24 hours
Method: FIG. 4. COMPOUND 1 decreases nuclear β-catenin • A. β-catenin immunofluorescence microscopy. Log phase SW480 (left) and HCT116 (right) cells were fixed and stained with either anti-β-catenin red (upper panel, A) or anti-CBP (upper panel, B) green. The center panel represents the superimposed β-catenin and CBP in SW480 (left) and HCT116 (right) cells. […] 25 μg of total protein from the cell extracts of SW480 cells with or without 24 hr treatment of COMPOUND1 was used for detection of cytosolic and nuclear β-catenin.
Immunofluorescence was used to examine the localization of CBP and β-catenin in SW480 and HCT116 cells treated with COMPOUND 1 (25 μM) or control (0.5% DMSO). Cells at log phase were seeded and after 24 hours, the cells were treated with COMPOUND 1 or control. 24 hours post treatment, cells were fixed. The coverslips were incubated with antibodies raised against CBP (A-22) (Santa Cruz Biotechnology) and β-catenin (Transduction Laboratories), respectively. The slides were examined using a Nikon PCM 2000 Laser Scanning Confocal Microscope after the secondary antibodies conjugated to either FITC or TRITC (Jackson ImmunoResearch, Westgrove, Pa.) were applied.
The subcellular distribution of β-catenin and CBP was examined in order to determine whether the localization of either was affected by COMPOUND 1. […]

O=C1C(Cc2ccc(O)cc2)N2C(=O)CCN(C(=O)NCc3ccccc3)C2CN1Cc1cccc2ccccc12 (centres unmarked) [COMPOUND 1]
Association of CBP with the cyclin D1 promoter (cyclin D1 promoter): completely and selectively blocks
Subcellular distribution of β-catenin [1]: caused translocation of β-catenin to the cytoplasm
